Measured values from patent US10316057B2, “Tandem facial amphiphiles” (WISCONSIN ALUMNI RESEARCH FOUNDATION, priority 2011, dated 2019).
Structures can show the parent of a compound that is named as a salt.

Test system: leucine transporter (LeuT WT)
Assay: LeuT functionality assay ([3H]-Leu binding by scintillation proximity assay)
Design: species or system Aquifex aeolicus
Details: room temperature
Source text: The wild type of bacterial leucine transporter (LeuT WT) was examined because the functional state of this membrane protein is readily assessed by using a scintillation proximity assay (SPA) (Quick et al., Proc. Natl. Acad. Sci. USA 2007, 104, 3603-3608) to monitor binding of radiolabelled leucine. LeuT was initially extracted with DDM and then diluted with amphiphile-containing solutions to generate final TFA concentrations of 0.04 wt % or 0.2 wt % (residual DDM=0.005 wt %). Control samples had 0.05 wt % or 0.2 wt % DDM (overall, the final concentrations were CMC+0.04 wt % or CMC+0.2 wt %).
The wild type of the leucine transporter (LeuT WT) from Aquifex aeolicus was expressed in Escherichia coli essentially as described by Deckert et al. (Nature 392, 353-358 (1998)). The pET16b-LeuT WT-8His plasmid was kindly provided by Dr. Eric Gouaux, Vollum Institute, Portland Oreg. LeuT WT was extracted from isolated bacterial membranes solubilized with 1% DDM, bound to Ni^2+-affinity Chelating Sepharose Fast Flow resin (GE Healthcare, USA), and eluted in buffer consisted of 20 mM Tris-HCl (pH 8.0), 1 mM NaCl, 199 mM KCl, 0.05% DDM and 300 mM imidazole. […] After incubation at room temperature, at the indicated time points, samples were centrifuged and the protein concentration was determined by absorbance measurements at 280 nm. Concomitantly, [^3H]-Leu binding was determined using scintillation proximity assay (SPA) (Quick and Javitch, Proc. Natl. Acad. Sci. USA 104, 3603-3608 (2007)), with the reaction mixture consisted of 5 μL from the respective samples, 33.3 nM [^3H]-Leu (PerkinElmer, USA) and copper chelate (His-Tag) YSi beads (GE Healthcare). […] Normalized results are expressed as mean±SEM (n=2), as illustrated in FIG. 11 (long-term solubility of LeuT WT incubated in the presence of TFA-1, TFA-3, and DDM at (a) CMC+0.04 wt % or (b) CMC+0.2 wt % at room temperature).

SMILES | maintaining LeuT WT function over 12 days (lower amphiphile concentration, CMC+0.04 wt %) | maintaining LeuT WT function over 12 days (higher amphiphile concentration, CMC+0.2 wt %)
CCCCCCCCCCCCO[C@@H]1O[C@H](CO)[C@@H](O[C@H]2O[C@H](CO)[C@@H](O)[C@H](O)[C@H]2O)[C@H](O)[C@H]1O [DDM, dodecyl-β-D-maltoside, reference compound] | slightly better than the TFAs | –
C[C@H](CCC(=O)N(C)CCCN(C)C(=O)CC[C@@H](C)[C@H]1CC[C@H]2[C@@H]3CC[C@@H]4C[C@H](O[C@@H]5O[C@H](CO)[C@@H](O[C@H]6O[C@H](CO)[C@@H](O)[C@H](O)[C@H]6O)[C@H](O)[C@H]5O)CC[C@]4(C)[C@H]3C[C@H](O[C@@H]3O[C@H](CO)[C@@H](O[C@H]4O[C@H](CO)[C@@H](O)[C@H](O)[C@H]4O)[C@H](O)[C@H]3O)[C@]12C)[C@H]1CC[C@H]2[C@@H]3CC[C@@H]4C[C@H](O[C@@H]5O[C@H](CO)[C@@H](O[C@H]6O[C@H](CO)[C@@H](O)[C@H](O)[C@H]6O)[C@H](O)[C@H]5O)CC[C@]4(C)[C@H]3C[C@H](O[C@@H]3O[C@H](CO)[C@@H](O[C@H]4O[C@H](CO)[C@@H](O)[C@H](O)[C@H]4O)[C@H](O)[C@H]3O)[C@]12C [TFA-1] | – | matched DDM at the lower concentration
